One compound from ChEMBL document CHEMBL4699480 (J Med Chem, 2020) can be followed below.

Active and inactive are the calls of the source. No cut-off for these calls is given here. Some results are limits rather than exact numbers.

The nature of experiment [1]: Inhibition of N-terminal 6x-His-tagged Hydrogenivirga-sp. 128-5-R1-1 MraY expressed in Escherichia coli NiCo21(DE3) incubated for 2 hrs by reversed-phase HPLC analysis.
The test system of a further experiment is DLD-1. As to the kind of experiment: Cytotoxicity in human DLD-1 cells assessed as reduction in cell viability incubated for 72 hrs by MTT assay. The settings on record: DLD-1, 72 h. The experiment is classed as functional, cell-based. Background: Tetrazolium assays rely on reduction of a dye to a coloured formazan, in cell work by metabolically active cells.

Another experiment relates to PANC-1. As to the kind of experiment: Cytotoxicity in human PANC-1 cells assessed as reduction in cell viability incubated for 72 hrs by MTT assay. The experiment is classed as functional, cell-based. The settings on record: PANC-1, 72 h.
Experiment [2] is described as follows: Cytotoxicity in human PD002 cells assessed as reduction in cell viability incubated for 72 hrs by MTT assay. The experiment is classed as functional, cell-based. The settings on record: PD002, 72 h.
The nature of experiment [3]: Cytotoxicity in human hTERT-HPNE cells assessed as reduction in cell viability incubated for 72 hrs by MTT assay. Format: cell-based.
Experiment [4] addresses T1, UDP-N-acetylglucosamine--dolichyl-phosphate N-acetylglucosaminephosphotransferase (Homo sapiens) (UniProt Q9H3H5).
T1 sequence (whole entry): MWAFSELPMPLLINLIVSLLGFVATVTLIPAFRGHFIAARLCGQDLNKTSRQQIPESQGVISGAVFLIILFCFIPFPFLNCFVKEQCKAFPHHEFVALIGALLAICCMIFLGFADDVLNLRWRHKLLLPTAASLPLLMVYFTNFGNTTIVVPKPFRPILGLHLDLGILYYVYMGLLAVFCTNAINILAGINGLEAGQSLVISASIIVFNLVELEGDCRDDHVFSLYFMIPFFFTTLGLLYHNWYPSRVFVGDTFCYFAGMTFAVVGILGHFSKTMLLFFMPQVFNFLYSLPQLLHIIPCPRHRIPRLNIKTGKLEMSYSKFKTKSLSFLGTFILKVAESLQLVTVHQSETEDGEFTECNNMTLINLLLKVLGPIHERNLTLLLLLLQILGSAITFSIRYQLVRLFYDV
As to the kind of experiment: Inhibition of DPAGT1 in human PD002 cells assessed as reduction in snail protein expression incubated for 24 hrs by immunofluorescence staining assay. The experiment is classed as cell-based.

A short description of experiment [5]: Synergistic cytotoxicity in human PD002 cells assessed as FIC at 2 uM incubated for 72 hrs in presence of 0.31 uM paclitaxel by IncuCyte live cell analysis imaging system based assay. Format: functional.
The next experiment relates to PD002. Briefly: Inhibition of DPAGT1 protein expression in human PD002 cells at 0.2 uM incubated for 24 hrs by Western blot analysis. The experiment is classed as functional, cell-based. (A western blot detects proteins with antibodies after separation by electrophoresis.)
A further experiment has as its system ASPC1. Briefly: Inhibition of DPAGT1 protein expression in human ASPC1 cells at 0.2 uM incubated for 24 hrs by Western blot analysis. Format: functional, cell-based.
In a further experiment the test system is SiHa. As to the kind of experiment: Inhibition of DPAGT1 protein expression in human SiHa cells at 0.2 uM incubated for 24 hrs by Western blot analysis. Format: functional, cell-based.
A short description of experiment [6]: Cytotoxicity in human PD002 cells assessed as phase area confluence level at 50 uM incubated for 72 hrs by IncuCyte live cell analysis imaging system based assay (reference value: 70%).

The term IC50 denotes the point on the concentration scale where inhibition reaches its midpoint.

As to `CO[C@H]1[C@@H](O)[C@H](n2ccc(=O)[nH]c2=O)O[C@@H]1[C@@H](O[C@H]1OC(C(=O)NCc2ccc(N3CCC(Oc4ccc(OC(F)(F)F)cc4)CC3)cc2)=C[C@H](O)[C@@H]1O)C(N)=O`, the concentration for half-maximal inhibition (IC50) is 10.3 µM in experiment [1]; 25 µM in the experiment on DLD-1; 35 µM in the experiment with PANC-1; 35 µM in experiment [2]; above 50 µM in [3]. The inhibition entry (in experiment [4]; in the experiment with PD002; in the experiment on ASPC1; in the experiment with SiHa) was “Active” each time. Also, the FIC in experiment [5] worked out at 0.26. In experiment [6], the Activity was found to be 10%.
